Data set [1] addresses T1, DAT (hDAT) (Homo sapiens, UniProt Q01959).
T1 construct: gene SLC6A3
The settings on record: read-out: DA Km; 130 mM NaCl, pH 7.4; 6 nM [3H]DA plus unlabelled DA; apparent affinity for uptake.

Substrate in data set [2]: NCCc1ccc(O)c(O)c1
Nature of the data set: cells, lysate or membranes. The following applies: 130 mM NaCl, pH 7.4, 6 nM [3H]DA plus unlabelled DA, apparent affinity for uptake.

T1 sequence (Q01959 whole entry): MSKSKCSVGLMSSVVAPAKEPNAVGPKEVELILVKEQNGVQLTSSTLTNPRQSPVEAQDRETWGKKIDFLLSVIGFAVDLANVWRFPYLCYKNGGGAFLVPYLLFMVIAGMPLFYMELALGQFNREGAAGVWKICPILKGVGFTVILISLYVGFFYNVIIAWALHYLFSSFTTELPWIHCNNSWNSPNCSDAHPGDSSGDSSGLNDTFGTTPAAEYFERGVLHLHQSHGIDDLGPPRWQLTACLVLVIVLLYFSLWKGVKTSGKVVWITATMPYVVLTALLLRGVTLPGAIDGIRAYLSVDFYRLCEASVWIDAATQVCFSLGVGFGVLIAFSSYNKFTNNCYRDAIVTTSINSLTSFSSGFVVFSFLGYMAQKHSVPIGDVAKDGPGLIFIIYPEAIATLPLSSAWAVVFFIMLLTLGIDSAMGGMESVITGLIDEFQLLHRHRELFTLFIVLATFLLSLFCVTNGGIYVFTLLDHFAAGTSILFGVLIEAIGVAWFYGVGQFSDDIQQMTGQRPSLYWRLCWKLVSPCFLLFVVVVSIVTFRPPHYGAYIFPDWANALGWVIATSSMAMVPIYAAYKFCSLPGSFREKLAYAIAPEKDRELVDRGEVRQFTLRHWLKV

As for `NCCc1ccc(O)c(O)c1` [dopamine], the Km in data set [1] is 1.2 µM.

B1: DAT (hDAT) (Homo sapiens; D436A) (protein)
chain: MSKSKCSVGLMSSVVAPAKEPNAVGPKEVELILVKEQNGVQLTSSTLTNPRQSPVEAQDRETWGKKIDFLLSVIGFAVDLANVWRFPYLCYKNGGGAFLVPYLLFMVIAGMPLFYMELALGQFNREGAAGVWKICPILKGVGFTVILISLYVGFFYNVIIAWALHYLFSSFTTELPWIHCNNSWNSPNCSDAHPGDSSGDSSGLNDTFGTTPAAEYFERGVLHLHQSHGIDDLGPPRWQLTACLVLVIVLLYFSLWKGVKTSGKVVWITATMPYVVLTALLLRGVTLPGAIDGIRAYLSVDFYRLCEASVWIDAATQVCFSLGVGFGVLIAFSSYNKFTNNCYRDAIVTTSINSLTSFSSGFVVFSFLGYMAQKHSVPIGDVAKDGPGLIFIIYPEAIATLPLSSAWAVVFFIMLLTLGIDSAMGGMESVITGLIAEFQLLHRHRELFTLFIVLATFLLSLFCVTNGGIYVFTLLDHFAAGTSILFGVLIEAIGVAWFYGVGQFSDDIQQMTGQRPSLYWRLCWKLVSPCFLLFVVVVSIVTFRPPHYGAYIFPDWANALGWVIATSSMAMVPIYAAYKFCSLPGSFREKLAYAIAPEKDRELVDRGEVRQFTLRHWLKV
With B1, the Km in data set [2] is 0.15 [0.13;0.18] μM.

The values are drawn from PMC4447972, “Mechanism of the Association between Na^+ Binding and Conformations at the Intracellular Gate in Neurotransmitter:Sodium Symporters” (The Journal of Biological Chemistry, 2015).
